Data taken from ChEMBL document CHEMBL4507256 (2021).

Legend:
[1] = test system: Receptor-type tyrosine-protein kinase FLT3 (Homo sapiens), P36888 [UNDEFINED MUTATION]; conditions: Compound concentration 1000.0 nM
[2] = target: Serine/threonine-protein kinase TAO1 (Homo sapiens) (UniProt Q7L7X3); conditions: Compound concentration 1000.0 nM
[3] = target: T1, Muscarinic acetylcholine receptor M2 (Homo sapiens) (UniProt P08172); conditions: Compound concentration 10.0 uM
T1 sequence (whole entry): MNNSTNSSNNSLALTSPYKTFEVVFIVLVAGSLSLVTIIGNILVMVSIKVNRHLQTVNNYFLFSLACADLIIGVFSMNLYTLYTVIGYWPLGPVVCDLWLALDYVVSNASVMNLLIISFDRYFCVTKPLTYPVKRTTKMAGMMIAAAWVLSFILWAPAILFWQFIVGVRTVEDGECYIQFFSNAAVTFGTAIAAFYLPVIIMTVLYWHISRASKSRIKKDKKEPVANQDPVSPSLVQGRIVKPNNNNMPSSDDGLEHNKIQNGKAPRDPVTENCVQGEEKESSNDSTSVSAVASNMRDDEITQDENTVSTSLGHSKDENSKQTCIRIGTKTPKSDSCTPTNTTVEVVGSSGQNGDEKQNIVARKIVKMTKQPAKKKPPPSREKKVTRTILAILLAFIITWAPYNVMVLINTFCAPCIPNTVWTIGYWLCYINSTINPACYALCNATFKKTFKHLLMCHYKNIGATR

[4] = target: Mitogen-activated protein kinase kinase kinase kinase 2 (Homo sapiens) (UniProt Q12851); conditions: Compound concentration 1000.0 nM
Sequence of Mitogen-activated protein kinase kinase kinase kinase 2 (Homo sapiens) (Q12851 whole entry): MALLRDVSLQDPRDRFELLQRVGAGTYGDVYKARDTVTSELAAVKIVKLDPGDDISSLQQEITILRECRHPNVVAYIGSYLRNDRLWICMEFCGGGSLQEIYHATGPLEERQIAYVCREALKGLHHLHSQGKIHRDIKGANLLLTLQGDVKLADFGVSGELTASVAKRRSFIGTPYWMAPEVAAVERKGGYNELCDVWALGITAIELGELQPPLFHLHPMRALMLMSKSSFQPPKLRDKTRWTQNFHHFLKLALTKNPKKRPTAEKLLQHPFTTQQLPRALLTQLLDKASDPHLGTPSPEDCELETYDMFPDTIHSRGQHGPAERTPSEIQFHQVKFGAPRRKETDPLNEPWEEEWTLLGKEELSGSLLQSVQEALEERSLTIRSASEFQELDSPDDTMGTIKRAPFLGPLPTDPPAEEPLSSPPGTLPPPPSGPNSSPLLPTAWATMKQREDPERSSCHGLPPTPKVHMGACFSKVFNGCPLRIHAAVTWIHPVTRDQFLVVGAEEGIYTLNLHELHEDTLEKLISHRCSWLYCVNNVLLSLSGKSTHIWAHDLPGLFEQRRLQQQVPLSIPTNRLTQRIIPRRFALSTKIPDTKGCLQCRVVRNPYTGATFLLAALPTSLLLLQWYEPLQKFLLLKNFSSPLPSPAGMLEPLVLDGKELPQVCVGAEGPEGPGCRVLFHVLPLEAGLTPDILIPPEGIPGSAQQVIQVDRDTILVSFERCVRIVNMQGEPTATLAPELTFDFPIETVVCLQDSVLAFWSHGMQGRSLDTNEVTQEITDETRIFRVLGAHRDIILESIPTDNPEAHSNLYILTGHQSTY

[5] = target: BMP-2-inducible protein kinase (Homo sapiens) (UniProt Q9NSY1); conditions: Compound concentration 1000.0 nM
[6] = target: Serine/threonine-protein kinase SBK1 (Homo sapiens) (UniProt Q52WX2); conditions: Compound concentration 1000.0 nM
[7] = target: Serine/threonine-protein kinase BRSK2 (Homo sapiens) (UniProt Q8IWQ3); conditions: Compound concentration 1000.0 nM
[8] = target: Wee1-like protein kinase (Homo sapiens) (UniProt P30291); conditions: Compound concentration 1000.0 nM
[9] = target: Mitogen-activated protein kinase 12 (Homo sapiens) (UniProt P53778); conditions: Compound concentration 1000.0 nM
Sequence of Mitogen-activated protein kinase 12 (Homo sapiens) (P53778 whole entry): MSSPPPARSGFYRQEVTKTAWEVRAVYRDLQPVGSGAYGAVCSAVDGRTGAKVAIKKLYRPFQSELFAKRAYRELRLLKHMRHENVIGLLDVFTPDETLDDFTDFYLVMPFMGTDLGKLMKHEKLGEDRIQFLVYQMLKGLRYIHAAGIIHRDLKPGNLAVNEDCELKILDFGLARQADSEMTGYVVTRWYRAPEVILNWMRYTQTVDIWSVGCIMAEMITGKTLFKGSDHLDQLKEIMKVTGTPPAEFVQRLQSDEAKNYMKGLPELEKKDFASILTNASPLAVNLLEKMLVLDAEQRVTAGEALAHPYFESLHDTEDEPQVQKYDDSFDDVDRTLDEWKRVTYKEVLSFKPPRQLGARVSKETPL

[10] = target: Fibroblast growth factor receptor 3 (Homo sapiens) (UniProt P22607); conditions: Compound concentration 1000.0 nM
Sequence of Fibroblast growth factor receptor 3 (Homo sapiens) (P22607 23-806 limits assumed): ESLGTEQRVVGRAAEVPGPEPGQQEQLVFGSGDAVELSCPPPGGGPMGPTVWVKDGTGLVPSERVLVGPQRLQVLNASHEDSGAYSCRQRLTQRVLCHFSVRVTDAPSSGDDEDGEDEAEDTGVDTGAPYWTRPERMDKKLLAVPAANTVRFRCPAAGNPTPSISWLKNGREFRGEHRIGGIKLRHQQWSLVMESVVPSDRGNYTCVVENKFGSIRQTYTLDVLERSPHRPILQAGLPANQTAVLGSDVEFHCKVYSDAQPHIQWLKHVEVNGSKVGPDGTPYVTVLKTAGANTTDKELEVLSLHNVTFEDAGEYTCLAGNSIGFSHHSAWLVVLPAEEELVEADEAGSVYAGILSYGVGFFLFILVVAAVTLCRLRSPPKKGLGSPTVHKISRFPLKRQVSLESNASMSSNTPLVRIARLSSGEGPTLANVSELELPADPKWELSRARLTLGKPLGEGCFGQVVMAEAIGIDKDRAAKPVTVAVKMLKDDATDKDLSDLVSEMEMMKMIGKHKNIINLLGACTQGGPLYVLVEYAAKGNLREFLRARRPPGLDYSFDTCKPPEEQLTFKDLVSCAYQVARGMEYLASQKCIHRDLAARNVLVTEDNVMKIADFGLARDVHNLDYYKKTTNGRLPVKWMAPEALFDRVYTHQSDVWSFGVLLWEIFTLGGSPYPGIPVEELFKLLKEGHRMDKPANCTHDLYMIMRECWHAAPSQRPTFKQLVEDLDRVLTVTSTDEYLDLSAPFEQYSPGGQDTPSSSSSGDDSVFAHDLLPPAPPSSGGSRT

[11] = test system: Mast/stem cell growth factor receptor Kit (Homo sapiens), P10721 [L576P]; conditions: Compound concentration 1000.0 nM
[12] = target: Mitogen-activated protein kinase kinase kinase 15 (Homo sapiens) (UniProt Q6ZN16); conditions: Compound concentration 1000.0 nM
[13] = target: NUAK family SNF1-like kinase 2 (Homo sapiens) (UniProt Q9H093); conditions: Compound concentration 1000.0 nM
[14] = target: Ribosomal protein S6 kinase alpha-1 (Homo sapiens) (UniProt Q15418); conditions: Compound concentration 1000.0 nM
[15] = target: Serine/threonine-protein kinase ULK2 (Homo sapiens) (UniProt Q8IYT8); conditions: Compound concentration 1000.0 nM
[16] = target: Tyrosine-protein kinase ABL1 (Homo sapiens) (UniProt P00519); conditions: Compound concentration 1000.0 nM
[17] = target: Alpha-2C adrenergic receptor (Homo sapiens) (UniProt P18825); conditions: Compound concentration 10.0 uM
[18] = test system: Tyrosine-protein kinase ABL1 (Homo sapiens), P00519 [F317I]; conditions: Compound concentration 1000.0 nM
Sequence of Tyrosine-protein kinase ABL1 (Homo sapiens), P00519 [F317I] (P00519 whole entry F317I): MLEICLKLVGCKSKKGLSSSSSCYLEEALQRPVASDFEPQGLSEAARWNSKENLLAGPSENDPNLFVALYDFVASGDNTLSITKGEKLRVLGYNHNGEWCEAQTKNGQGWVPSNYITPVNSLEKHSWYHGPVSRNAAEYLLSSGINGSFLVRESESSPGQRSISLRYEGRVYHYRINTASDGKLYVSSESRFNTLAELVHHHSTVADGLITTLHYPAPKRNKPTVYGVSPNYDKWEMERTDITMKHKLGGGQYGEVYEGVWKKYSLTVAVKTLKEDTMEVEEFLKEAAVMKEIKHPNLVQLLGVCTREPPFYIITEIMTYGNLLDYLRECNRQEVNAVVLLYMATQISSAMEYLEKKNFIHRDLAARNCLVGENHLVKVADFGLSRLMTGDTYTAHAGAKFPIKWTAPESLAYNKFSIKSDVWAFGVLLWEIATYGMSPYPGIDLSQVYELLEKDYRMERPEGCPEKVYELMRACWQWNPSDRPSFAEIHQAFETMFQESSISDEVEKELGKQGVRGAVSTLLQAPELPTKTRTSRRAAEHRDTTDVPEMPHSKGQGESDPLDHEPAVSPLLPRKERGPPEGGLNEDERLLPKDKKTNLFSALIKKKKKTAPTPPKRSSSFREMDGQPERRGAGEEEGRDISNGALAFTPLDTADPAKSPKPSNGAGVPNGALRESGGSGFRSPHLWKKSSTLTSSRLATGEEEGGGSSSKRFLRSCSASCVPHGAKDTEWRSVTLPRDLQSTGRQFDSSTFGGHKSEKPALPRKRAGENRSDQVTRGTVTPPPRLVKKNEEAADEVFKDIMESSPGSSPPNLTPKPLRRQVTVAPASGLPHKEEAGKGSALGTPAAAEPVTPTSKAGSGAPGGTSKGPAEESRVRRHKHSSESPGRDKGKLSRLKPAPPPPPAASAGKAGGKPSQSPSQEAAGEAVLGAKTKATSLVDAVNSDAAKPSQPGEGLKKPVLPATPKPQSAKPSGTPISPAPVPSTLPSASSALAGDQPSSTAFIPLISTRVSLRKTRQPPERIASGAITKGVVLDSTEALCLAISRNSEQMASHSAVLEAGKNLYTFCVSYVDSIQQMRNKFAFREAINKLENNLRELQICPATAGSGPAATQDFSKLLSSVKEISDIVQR

[19] = target: Myotonin-protein kinase (Homo sapiens) (UniProt Q09013); conditions: Compound concentration 1000.0 nM
[20] = target: Phosphatidylinositol 5-phosphate 4-kinase type-2 beta (Homo sapiens) (UniProt P78356); conditions: Compound concentration 1000.0 nM
[21] = target: MAP kinase-interacting serine/threonine-protein kinase 1 (Homo sapiens) (UniProt Q9BUB5); conditions: Compound concentration 1000.0 nM
[22] = target: Cyclin-dependent kinase 2 homolog (Plasmodium falciparum (isolate 3D7)) (UniProt P61075); conditions: Compound concentration 1000.0 nM
[23] = target: Serine/threonine-protein kinase haspin (Homo sapiens) (UniProt Q8TF76); conditions: Compound concentration 1000.0 nM
[24] = target: Ephrin type-B receptor 4 (Homo sapiens) (UniProt P54760); conditions: Compound concentration 1000.0 nM
[25] = target: Receptor-interacting serine/threonine-protein kinase 1 (Homo sapiens) (UniProt Q13546); conditions: Compound concentration 1000.0 nM
Sequence of Receptor-interacting serine/threonine-protein kinase 1 (Homo sapiens) (Q13546 whole entry): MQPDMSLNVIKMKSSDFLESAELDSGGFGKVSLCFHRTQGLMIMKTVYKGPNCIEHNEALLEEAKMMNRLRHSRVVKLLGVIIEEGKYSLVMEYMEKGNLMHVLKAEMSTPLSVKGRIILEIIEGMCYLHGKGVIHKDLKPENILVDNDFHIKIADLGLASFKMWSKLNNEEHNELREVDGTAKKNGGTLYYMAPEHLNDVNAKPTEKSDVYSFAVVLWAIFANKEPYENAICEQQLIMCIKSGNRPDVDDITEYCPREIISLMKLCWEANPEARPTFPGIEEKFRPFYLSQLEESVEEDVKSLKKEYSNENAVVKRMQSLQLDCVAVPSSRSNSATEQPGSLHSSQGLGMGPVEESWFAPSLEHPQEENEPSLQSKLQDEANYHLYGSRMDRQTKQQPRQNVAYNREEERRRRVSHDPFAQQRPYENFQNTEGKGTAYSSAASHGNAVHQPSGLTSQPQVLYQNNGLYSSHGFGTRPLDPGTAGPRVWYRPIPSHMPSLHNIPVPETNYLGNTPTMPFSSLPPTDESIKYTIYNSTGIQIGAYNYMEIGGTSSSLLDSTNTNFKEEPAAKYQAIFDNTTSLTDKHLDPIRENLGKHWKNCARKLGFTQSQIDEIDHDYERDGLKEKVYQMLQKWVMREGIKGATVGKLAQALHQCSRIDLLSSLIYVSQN

[26] = target: Muscle, skeletal receptor tyrosine-protein kinase (Homo sapiens) (UniProt O15146); conditions: Compound concentration 1000.0 nM
[27] = test system: Receptor-type tyrosine-protein kinase FLT3 (Homo sapiens), P36888 [UNDEFINED MUTATION]; conditions: Compound concentration 1000.0 nM; remark: listed apart in the source
[28] = target: Serine/threonine-protein kinase Nek10 (Homo sapiens) (UniProt Q6ZWH5); conditions: Compound concentration 1000.0 nM
[29] = target: Serine/threonine-protein kinase pim-1 (Homo sapiens) (UniProt P11309); conditions: Compound concentration 1000.0 nM
Sequence of Serine/threonine-protein kinase pim-1 (Homo sapiens) (P11309 whole entry, looked up): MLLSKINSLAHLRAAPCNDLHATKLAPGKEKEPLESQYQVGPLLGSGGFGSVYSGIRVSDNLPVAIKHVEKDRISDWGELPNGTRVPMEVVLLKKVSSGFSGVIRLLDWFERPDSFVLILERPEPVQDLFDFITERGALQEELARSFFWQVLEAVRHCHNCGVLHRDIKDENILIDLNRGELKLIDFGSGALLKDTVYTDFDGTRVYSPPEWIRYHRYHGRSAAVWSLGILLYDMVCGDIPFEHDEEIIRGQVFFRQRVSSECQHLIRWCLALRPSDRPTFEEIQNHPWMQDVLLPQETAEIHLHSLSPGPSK

[30] = target: Serine/threonine-protein kinase RIO1 (Homo sapiens) (UniProt Q9BRS2); conditions: Compound concentration 1000.0 nM
[31] = target: Serine/threonine-protein kinase Sgk1 (Homo sapiens) (UniProt O00141); conditions: Compound concentration 1000.0 nM
[32] = target: 3-phosphoinositide-dependent protein kinase 1 (Homo sapiens) (UniProt O15530); conditions: Compound concentration 1000.0 nM
[33] = test system: ALK tyrosine kinase receptor (Homo sapiens), Q9UM73 [C1156Y]; conditions: Compound concentration 1000.0 nM
[34] = target: Phosphatidylinositol 4,5-bisphosphate 3-kinase catalytic subunit gamma isoform (Homo sapiens) (UniProt P48736); conditions: Compound concentration 1000.0 nM
[35] = target: Mitogen-activated protein kinase 1 (Homo sapiens) (UniProt P28482); conditions: Compound concentration 1000.0 nM
[36] = test system: Phosphatidylinositol 4,5-bisphosphate 3-kinase catalytic subunit alpha isoform (Homo sapiens), P42336 [M1043I]; conditions: Compound concentration 1000.0 nM
[37] = target: Serine/threonine-protein kinase WNK1 (Homo sapiens) (UniProt Q9H4A3); conditions: Compound concentration 1000.0 nM
[38] = target: Alpha-1B adrenergic receptor (Homo sapiens) (UniProt P35368); conditions: Compound concentration 10.0 uM

Sequence of Receptor-type tyrosine-protein kinase FLT3 (Homo sapiens), P36888 [UNDEFINED MUTATION] (P36888 whole entry, looked up, change not shown): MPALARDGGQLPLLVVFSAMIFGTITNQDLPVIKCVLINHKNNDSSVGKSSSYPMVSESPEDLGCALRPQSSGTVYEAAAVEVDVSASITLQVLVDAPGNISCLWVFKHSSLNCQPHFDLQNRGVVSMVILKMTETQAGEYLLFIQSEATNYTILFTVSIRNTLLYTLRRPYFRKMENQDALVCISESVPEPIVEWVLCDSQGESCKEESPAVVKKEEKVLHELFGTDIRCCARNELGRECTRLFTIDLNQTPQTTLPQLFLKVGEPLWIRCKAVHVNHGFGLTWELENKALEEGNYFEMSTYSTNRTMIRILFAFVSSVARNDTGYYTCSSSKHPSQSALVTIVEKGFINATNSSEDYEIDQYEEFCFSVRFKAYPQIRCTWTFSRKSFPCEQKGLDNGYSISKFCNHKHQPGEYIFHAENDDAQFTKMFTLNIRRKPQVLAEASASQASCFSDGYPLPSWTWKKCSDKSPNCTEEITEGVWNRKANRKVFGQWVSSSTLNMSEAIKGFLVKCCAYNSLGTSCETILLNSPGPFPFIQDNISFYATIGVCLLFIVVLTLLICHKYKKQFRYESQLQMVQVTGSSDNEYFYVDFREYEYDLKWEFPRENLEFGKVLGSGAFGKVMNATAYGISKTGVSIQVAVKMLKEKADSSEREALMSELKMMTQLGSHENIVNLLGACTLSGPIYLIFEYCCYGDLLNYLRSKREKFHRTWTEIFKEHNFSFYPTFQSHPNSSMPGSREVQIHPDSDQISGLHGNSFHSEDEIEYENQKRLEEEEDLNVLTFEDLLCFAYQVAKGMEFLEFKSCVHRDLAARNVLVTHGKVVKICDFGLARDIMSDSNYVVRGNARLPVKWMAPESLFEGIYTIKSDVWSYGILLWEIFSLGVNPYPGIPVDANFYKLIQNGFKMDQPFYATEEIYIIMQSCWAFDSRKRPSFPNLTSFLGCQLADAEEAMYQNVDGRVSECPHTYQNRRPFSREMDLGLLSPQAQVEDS

| Structure (SMILES) | residual activity [1] [%] | residual activity [2] [%] | inhibition [3] [%] | residual activity [4] [%] | residual activity [5] [%] | residual activity [6] [%] | residual activity [7] [%] | residual activity [8] [%] | residual activity [9] [%] | residual activity [10] [%] | residual activity [11] [%] | residual activity [12] [%] | residual activity [13] [%] | residual activity [14] [%] | residual activity [15] [%] | residual activity [16] [%] | inhibition [17] [%] | residual activity [18] [%] | residual activity [19] [%] | residual activity [20] [%] | further results |
| --- | --- | --- | --- | --- | --- | --- | --- | --- | --- | --- | --- | --- | --- | --- | --- | --- | --- | --- | --- | --- | --- |
| CCC(=N\O)/C(C)=C/c1ccc(F)c(C)c1 [A-226] | 97 | 100 | 14.3 | 100 | 100 | 100 | 100 | 94 | 88 | 96 | 94 | 69 | 100 | 100 | 100 | 100 | 15.7 | 100 | 72 | 74 | residual activity [21]: 100%; residual activity [22]: 100%; residual activity [23]: 100%; residual activity [24]: 100%; residual activity [25]: 100%; residual activity [26]: 100%; residual activity [27]: 100%; residual activity [28]: 100%; residual activity [29]: 70%; residual activity [30]: 100%; residual activity [31]: 100%; residual activity [32]: 100%; residual activity [33]: 100%; residual activity [34]: 100%; residual activity [35]: 92%; residual activity [36]: 71%; residual activity [37]: 100%; inhibition [38]: 0.56% |
| CCC(=N\O)/C(C)=C/c1ccc(F)cc1 [A-079] | 76 | 100 | 9.31 | 97 | 80 | 100 | 100 | 97 | 100 | 91 | 100 | 100 | 73 | 100 | 46 | 83 | 8.29 | 100 | 88 | 91 | residual activity [21]: 56%; residual activity [22]: 84%; residual activity [23]: 65%; residual activity [24]: 73%; residual activity [25]: 82%; residual activity [26]: 90%; residual activity [27]: 94%; residual activity [28]: 95%; residual activity [29]: 85%; residual activity [30]: 80%; residual activity [31]: 89%; residual activity [32]: 87%; residual activity [33]: 77%; residual activity [34]: 100%; residual activity [35]: 71%; residual activity [36]: 88%; residual activity [37]: 83%; inhibition [38]: 3.8% |
